From patent US9394297B2, “Amides as pim inhibitors” (AMGEN INC., priority 2012, dated 2016)
Read-outs that look alike come from different tables or passages of the source.

Legend:
[1] = target: Pim-1 (Homo sapiens (Human), UniProt P11309); test: Pim-Mn enzyme assay (HTRF, 384-well), Pim-1; format: biochemical; settings: read-out: Pim-1-Mn IC50 IP
[2] = target: Pim-2 (Homo sapiens (Human), UniProt Q9P1W9); test: Pim-Mn enzyme assay (HTRF, 384-well), Pim-2; format: biochemical; settings: read-out: Pim-2-Mn IC50 IP
Sequence of Pim-2 (Q9P1W9 whole entry): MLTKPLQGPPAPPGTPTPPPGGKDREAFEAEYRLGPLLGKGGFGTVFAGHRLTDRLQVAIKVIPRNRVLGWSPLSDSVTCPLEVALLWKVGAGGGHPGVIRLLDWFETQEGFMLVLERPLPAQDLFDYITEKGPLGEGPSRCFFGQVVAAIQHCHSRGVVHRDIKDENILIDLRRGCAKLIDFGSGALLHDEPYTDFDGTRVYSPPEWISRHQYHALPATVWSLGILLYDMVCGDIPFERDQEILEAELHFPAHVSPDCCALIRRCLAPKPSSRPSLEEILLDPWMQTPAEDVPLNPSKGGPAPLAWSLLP

[3] = test system: KMS-12-BM cell lines; test: KMS12 #2 flow cytometry assay (phospho-BAD Ser112); format: cell-based; settings: read-out: KMS-12-Flow IC50 IP
[4] = Pim-1 enzyme 5 pM, ATP 1.5 μM, BAD (S112) 0.5 μM, HTRF, 22-point curve
[5] = Pim-2 enzyme 0.5 pM, ATP 1.5 μM, BAD (S112) 0.5 μM, HTRF, 22-point curve
[6] = Homo sapiens, 110 min, KMS-12-BM cells, pBAD Ser112 by flow cytometry, 110 min with compound

Sequence of Pim-1 (P11309 whole entry): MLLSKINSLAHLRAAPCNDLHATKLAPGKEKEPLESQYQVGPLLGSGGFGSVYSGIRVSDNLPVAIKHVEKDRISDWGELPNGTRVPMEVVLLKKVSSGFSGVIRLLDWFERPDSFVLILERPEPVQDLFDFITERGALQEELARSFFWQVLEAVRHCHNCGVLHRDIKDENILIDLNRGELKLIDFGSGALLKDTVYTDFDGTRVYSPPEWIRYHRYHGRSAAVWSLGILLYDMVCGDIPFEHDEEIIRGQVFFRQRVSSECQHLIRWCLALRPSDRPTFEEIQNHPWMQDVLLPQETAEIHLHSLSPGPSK

Structure (SMILES) | IC50 [1, 4] | IC50 [2, 5] | IC50 [3, 6] | IC50 ([3]; KMS-12-BM cells, pBAD Ser112 by flow cytometry, 110 min with compound) | IC50 [2] | IC50 [1] | IC50 ([3]; Homo sapiens, KMS-12-BM, 110 min)
Cc1nc2cccc(-c3cc4n(n3)CCNC4=O)c2nc1NC(C)(C)C [Example 471, 2-(3-(tert-butylamino)-2-methylquinoxalin-5-yl)-6,7-dihydropyrazolo[1,5-a]pyrazin-4(5H)-one] | 164 nM | – | 15500 nM | – | 593 nM | – | –
CNc1nc2cccc(-c3cc4c([nH]3)CCNC4=O)c2nc1NC(C)(C)C [Example 344, 2-(3-(tert-butylamino)-2-(methylamino)-5-quinoxalinyl)-1,5,6,7-tetrahydro-4H-pyrrolo[3,2-c]pyridin-4-one] | 1.19 nM | 5.61 nM | 202 nM | – | – | – | –
Cc1nc2cccc(-c3cc4c([nH]3)[C@@H](C)NC4=O)c2nc1O[C@@H](C)C(F)(F)F [Example 452, (6R)-6-methyl-2-(2-methyl-3-((1S)-2,2,2-trifluoro-1-methylethoxy)-5-quinoxalinyl)-5,6-dihydropyrrolo[3,4-b]pyrrol-4(1H)-one] | 21.6 nM | 32.5 nM | 3190 nM | – | – | – | –
CC(C)Nc1nc2c(-c3cc4c([nH]3)CCNC4=O)cccc2c(=O)n1-c1ccccn1 [Example 415, 2-((1-methylethyl)amino)-8-(4-oxo-4,5,6,7-tetrahydro-1H-pyrrolo[3,2-c]pyridin-2-yl)-3-(2-pyridinyl)-4(3H)-quinazolinone] | 10.9 nM | 29.4 nM | 5860 nM | – | – | – | –
Cc1cccnc1-c1nc2c(-c3cc4c([nH]3)CCNC4=O)cccc2nc1C [Example 430, 2-(2-Methyl-3-(3-methylpyridin-2-yl)quinoxalin-5-yl)-6,7-dihydro-1H-pyrrolo[3,2-c]pyridin-4(5H)-one] | 200 nM | 257 nM | 24800 nM | – | – | – | –
Cc1nc2cccc(-c3cc4c([nH]3)C3(CC3)NC4=O)c2nc1NCC(F)(F)F [Example 381, 2′-(2-methyl-3-((2,2,2-trifluoroethyl)amino)quinoxalin-5-yl)-1′H-spiro[cyclopropane-1,6′-pyrrolo[3,4-b]pyrrol]-4′(5′H)-one] | – | – | 215 nM | – | 1.36 nM | 1.6 nM | –
Cc1nc2ccc(F)c(-c3cc(C(N)=O)c(C)[nH]3)c2nc1NC1(C)CC1 [Example 417, 5-(6-fluoro-2-methyl-3-((1-methylcyclopropyl)amino)quinoxalin-5-yl)-2-methyl-1H-pyrrole-3-carboxamide] | 2.91 nM | 3.56 nM | 279 nM | – | – | – | –
Cc1nc2cccc(-c3cc4c([nH]3)[C@@H](C)NC4=O)c2nc1O[C@H](C)C(F)(F)F [Example 453, (6R)-6-methyl-2-(2-methyl-3-((1R)-2,2,2-trifluoro-1-methylethoxy)-5-quinoxalinyl)-5,6-dihydropyrrolo[3,4-b]pyrrol-4(1H)-one] | 37.5 nM | 258 nM | > 40000 nM | – | – | – | –
Cc1nc2cccc(-c3c[nH]c(C(N)=O)c3)c2nc1NC(C)(C)C [Example 420, 4-(3-(tert-butylamino)-2-methyl-5-quinoxalinyl)-1H-pyrrole-2-carboxamide] | 26.5 nM | 34.8 nM | 9120 nM | – | – | – | –
Cc1nc2cccc(-c3cc4c([nH]3)[C@@H](CO)NC4=O)c2nc1NC1(C)CC1 [Example 361, (S)-6-(hydroxymethyl)-2-(2-methyl-3-((1-methylcyclopropyl)amino)quinoxalin-5-yl)-5,6-dihydropyrrolo[3,4-b]pyrrol-4 (1H)-one] | 0.414 nM | 0.53 nM | 67.1 nM | – | – | – | –
Cc1nc2cccc(-c3cc4c([nH]3)C3(CC3)NC4=O)c2nc1NC1CC1 [Example 325, 2′-(3-(cyclopropylamino)-2-methyl-5-quinoxalinyl)-1′H-spiro[cyclopropane-1,6′-pyrrolo[3,4-b]pyrrol]-4′(5′H)-one] | – | 0.242 nM | – | – | – | 0.293 nM | 68.8 nM

Second part, led by results:

IC50 [1, 4] | IC50 [2, 5] | IC50 [3, 6] | IC50 ([3]; KMS-12-BM cells, pBAD Ser112 by flow cytometry, 110 min with compound) | Structure (SMILES) | IC50 [2] | IC50 [1] | IC50 ([3]; Homo sapiens, KMS-12-BM, 110 min)
12.3 nM | 37.1 nM | 2610 nM | – | Cc1nc2cccc(-c3cc4n(c3)C(=O)NC4=O)c2nc1NC(C)(C)C [Example 422, 6-(3-(tert-Butylamino)-2-methyl-5-quinoxalinyl)-1H-pyrrolo[1,2-c]imidazole-1,3(2H)-dione] | – | – | –
39.9 nM | 47.4 nM | > 40000 nM | – | Cc1nc2cccc(-c3cc4c([nH]3)CCNC4=O)c2nc1-c1ccccc1F [Example 428, 2-(3-(2-Fluorophenyl)-2-methylquinoxalin-5-yl)-6,7-dihydro-1H-pyrrolo[3,2-c]pyridin-4(5H)-one] | – | – | –
1.5 nM | 2.6 nM | 659 nM | – | CC(C)(C)Nc1nc2c(-c3cc4c([nH]3)CCNC4=O)cccc2c(=O)n1-c1cccnc1 [Example 404, 2-(tert-butylamino)-8-(4-oxo-4,5,6,7-tetrahydro-1H-pyrrolo[3,2-c]pyridin-2-yl)-3-(3-pyridinyl)-4(3H)-quinazolinone] | – | – | –
0.259 nM | 0.275 nM | 119 nM | – | CCC(C)(C)Nc1nc2c(-c3cc4c([nH]3)CCNC4=O)c(F)ccc2nc1C [Example 375, 2-(6-fluoro-2-methyl-3-(tert-pentylamino)quinoxalin-5-yl)-6,7-dihydro-1H-pyrrolo[3,2-c]pyridin-4(5H)-one] | – | – | –
52.3 nM | 127 nM | > 40000 nM | – | Cc1ccccc1-c1nc2c(-c3cc4c([nH]3)CCNC4=O)cccc2nc1C [Example 426, 2-(2-Methyl-3-(o-tolyl)quinoxalin-5-yl)-6,7-dihydro-1H-pyrrolo[3,2-c]pyridin-4(5H)-one] | – | – | –
1.22 nM | 0.996 nM | 99.3 nM | – | Cc1nc2cccc(-c3cc4c([nH]3)CCNC4=O)c2nc1NCC1(C)CC1 [Example 335, 2-(2-Methyl-3-(((1-methylcyclopropyl)methyl)amino)-5-quinoxalinyl)-1,5,6,7-tetrahydro-4H-pyrrolo[3,2-c]pyridin-4-one] | – | – | –
3.4 nM | 1.73 nM | 527 nM | – | Cc1nc2cccc(-c3cc4c([nH]3)CCNC4=O)c2nc1N[C@H]1C[C@H](O)C1 [Example 442, 2-(3-((trans-3-Hydroxycyclobutyl)amino)-2-methylquinoxalin-5-yl)-6,7-dihydro-1H-pyrrolo[3,2-c]pyridin-4(5H)-one] | – | – | –
1.25 nM | 1.91 nM | 341 nM | – | Cc1nc2cccc(-c3cc4c([nH]3)CNC4=O)c2nc1NCC(F)(F)F [Example 301, 2-(2-methyl-3-((2,2,2-trifluoroethyl)amino)-5-quinoxalinyl)-5,6-dihydropyrrolo[3,4-b]pyrrol-4(1H)-one] | – | – | –
82.4 nM | 82.1 nM | > 40000 nM | – | Cc1nc2cccc(-c3cc4c([nH]3)CCNC4=O)c2nc1-c1ccccc1 [Example 424, 2-(2-Methyl-3-phenylquinoxalin-5-yl)-6,7-dihydro-1H-pyrrolo[3,2-c]pyridin-4(5H)-one] | – | – | –
30.9 nM | 40.9 nM | 8400 nM | – | Cc1nc2cccc(-c3cc4c([nH]3)CCNC4=O)c2nc1-c1ccoc1C [Example 433, 2-(2-Methyl-3-(2-methylfuran-3-yl)quinoxalin-5-yl)-6,7-dihydro-1H-pyrrolo[3,2-c]pyridin-4(5H)-one] | – | – | –
0.839 nM | 1.47 nM | 572 nM | – | Cc1nc2cccc(-c3cc4c([nH]3)CCCC4=O)c2nc1NC(C)(C)C [Example 303, 2-(3-(tert-butylamino)-2-methylquinoxalin-5-yl)-6,7-dihydro-1H-indol-4(5H)-one] | – | – | –
0.345 nM | 0.297 nM | 142 nM | – | Cc1nc2cccc(-c3cc4c([nH]3)CNC4=O)c2nc1NC1CC1 [Example 363, 2-(3-(cyclopropylamino)-2-methylquinoxalin-5-yl)-5,6-dihydropyrrolo[3,4-b]pyrrol-4(1H)-one] | – | – | –
0.1 nM | 0.24 nM | 47 nM | – | C[C@H]1NC(=O)c2cc(-c3cccc4c(=O)[nH]c(NC(C)(C)C)nc34)[nH]c21 [Example 408, 2-(tert-butylamino)-8-((6R)-6-methyl-4-oxo-1,4,5,6-tetrahydropyrrolo[3,4-b]pyrrol-2-yl)-4(3H)-quinazolinone] | – | – | –
1.98 nM | 1.95 nM | 151 nM | – | C[C@@H](O)c1nc2cccc(-c3cc4c([nH]3)CCNC4=O)c2nc1NC(C)(C)C [Example 311, (R)-2-(3-(tert-butylamino)-2-(1-hydroxyethyl)quinoxalin-5-yl)-6,7-dihydro-1H-pyrrolo[3,2-c]pyridin-4(5H)-one] | – | – | –
67.3 nM | 61.9 nM | 5060 nM | – | Cc1nc2cccc(-c3cc4c([nH]3)CCNC4=O)c2nc1-c1ccoc1 [Example 431, 2-(3-(Furan-3-yl)-2-methylquinoxalin-5-yl)-6,7-dihydro-1H-pyrrolo[3,2-c]pyridin-4(5H)-one] | – | – | –
18.1 nM | 17.2 nM | – | 1310 nM | Cc1nc2cccc(-c3cc4c([nH]3)CCNC4=O)c2nc1N[C@H]1C[C@@H](NC(=O)OC(C)(C)C)C1 [Example 434, tert-butyl ((1s,3s)-3-((3-methyl-8-(4-oxo-4,5,6,7-tetrahydro-1H-pyrrolo[3,2-c]pyridin-2-yl)quinoxalin-2-yl)amino)cyclobutyl)carbamate] | – | – | –
0.625 nM | 0.874 nM | 1000 nM | – | Cc1nc2cccc(-c3[nH]c4c(c3Br)C(=O)NCC4)c2nc1NC(C)(C)C [Example 349, 3-bromo-2-(3-(tert-butylamino)-2-methyl-5-quinoxalinyl)-1,5,6,7-tetrahydro-4H-pyrrolo[3,2-c]pyridin-4-one] | – | – | –
